# According to patent US20250032476A1, “ALPHA-2A ADRENERGIC RECEPTOR MODULATORS AND USES THEREOF” (The Regents of the University of California, priority 2021, published 2025):
# Where “and” joins values, the source holds several entries; their conditions need not be identical. Identical values can stand only once. Like-named read-outs stand apart in the source and are kept apart here.
# Legend:
# [1] = molecular target: T1, human α2AAR (Homo sapiens (Human), UniProt P08913); assay: Gαi G protein activation, BRET biosensor assay in HEK293T cells; conditions: for Emax: HEK-293T; for EC50: Gi EC50 ± SE, BRET biosensor, human α2AAR (Table 3)
# [2] = molecular target: T1, human α2AAR; assay: Radioligand competition binding to human α2AAR (HEK293T membranes, [3H]RX82,1002); conditions: human α2AAR; mean ± SEM (Table 3); read-out: Ki
# [3] = molecular target: T1, human α2AAR; assay: DiscoverX HitHunter cAMP G-protein activation assay; conditions: read-out: Gi/o Emax
# Description: DiscoverX HitHunter cAMP G-protein activation assay. […] Freezer stock cAMP Hunter cell lines were expanded, then seeded in a total volume of 20 uL into white walled, 384-well microplates and incubated at 37° C. prior to testing. For agonist determination, cells were incubated with compound samples in the presence of EC80 forskolin to induce response. Media was aspirated from cells and replaced with 15 uL 2:1 HBSS/10 mM Hepes: cAMP XS+Ab reagent. Intermediate dilution of sample stocks was performed to generate 4× sample in assay buffer containing 4× EC80 forskolin. […] Finally assay vehicle concentration was 1%. After sample incubation assay signal was generated through incubation with 20 uL cAMP XS+ED/CL lysis cocktail for one hour followed by incubation with 20 uL cAMP XS+EA reagent for three hours at room temperature. Microplates were read following signal generation with a PerkinElmer Envision Instrument for chemiluminescent signal detection. Compound activity was analyzed using CBIS data analysis suite. For Gi agonist mode, percentage activity is calculated using the following formula: % Activity=100%×(1−(mean RLU of test sample−mean RLU of MAX control)/(mean RLU of vehicle control−mean RLU of MAX control)). […] Each measurement was done in duplicate.
# DiscoverX HitHunter cAMP G-protein activation assay. […] Freezer stock cAMP Hunter cell lines were expanded, then seeded in a total volume of 20 μL into white walled, 384-well microplates and incubated at 37° C. prior to testing. For agonist determination, cells were incubated with compound samples in the presence of EC50 forskolin to induce response. Media was aspirated from cells and replaced with 15 μL 2:1 HBSS/10 mM Hepes: cAMP XS+Ab reagent. Intermediate dilution of sample stocks was performed to generate 4× sample in assay buffer containing 4× EC80 forskolin. […] Finally assay vehicle concentration was 1%. After sample incubation assay signal was generated through incubation with 20 μL cAMP XS+ED/CL lysis cocktail for one hour followed by incubation with 20 μL cAMP XS+EA reagent for three hours at room temperature. Microplates were read following signal generation with a PerkinElmer Envision Instrument for chemiluminescent signal detection. Compound activity was analyzed using CBIS data analysis suite. For Gi agonist mode, percentage activity is calculated using the following formula: % Activity=100%×(1−(mean RLU of test sample−mean RLU of MAX control)/(mean RLU of vehicle control−mean RLU of MAX control)). […] Each measurement was done in duplicate.
# [4] = molecular target: T1, human α2AAR; assay: β-arrestin-2 recruitment, BRET biosensor assay in HEK293T cells; conditions: HEK-293T
# Description: Bioluminescense resonance energy transfer. G protein mediated activation of human α2AAR and D2long was monitored with Gαi1-RLucII (71, 72) together with Gβ1 and Gγ1-GFP10. Arrestin recruitment was performed by enhanced bystander BRET using CAAX-rGFP and β-arrestin-2-RLucII as biosensors (all biosensors are provided from M. Bouvier, Université de Montréal, Canada) (71, 73) in the presence of GRK2 as described (66, 74). In brief, HEK293T cells were transfected with a total amount of 3.3 μg DNA per 10^6 cells using linear polyethyleneimine (PEI, Polysciences, 3:1 PEI:DNA ratio) and transferred into 96-well half-area plates (Greiner, Frickenhausen, Germany) at a density of 10,000 cells per well and incubated for 48 hrs. Medium was exchanged with PBS (Hank's balanced salt solution) and cells were stimulated with ligands at 37° C. for 10 min for Gαi stimulation or arrestin recruitment, respectively.
# [5] = molecular target: T2, ALPHA-2A ADRENERGIC RECEPTOR (Homo sapiens (Human), UniProt P08913); assay: Gi recruitment (G protein); assay type: cell-based; conditions: for functional classification (agonist / weak agonist) / EC50 / Emax: Gi recruitment; for functional classification (agonist / weak agonist): Table 6, result in words
# [6] = test system: mice; assay: Rotarod motor test (motor impairment and sedation); assay type: in vivo; conditions: equi-analgesic doses (DEX: higher doses)
# [7] = molecular target: T2, ALPHA-2A ADRENERGIC RECEPTOR; assay: Arrestin recruitment; assay type: cell-based; conditions: Tables 7-9
# [8] = Tables 7-9, read-out: G protein Emax (%)
# T1 sequence (P08913 whole entry): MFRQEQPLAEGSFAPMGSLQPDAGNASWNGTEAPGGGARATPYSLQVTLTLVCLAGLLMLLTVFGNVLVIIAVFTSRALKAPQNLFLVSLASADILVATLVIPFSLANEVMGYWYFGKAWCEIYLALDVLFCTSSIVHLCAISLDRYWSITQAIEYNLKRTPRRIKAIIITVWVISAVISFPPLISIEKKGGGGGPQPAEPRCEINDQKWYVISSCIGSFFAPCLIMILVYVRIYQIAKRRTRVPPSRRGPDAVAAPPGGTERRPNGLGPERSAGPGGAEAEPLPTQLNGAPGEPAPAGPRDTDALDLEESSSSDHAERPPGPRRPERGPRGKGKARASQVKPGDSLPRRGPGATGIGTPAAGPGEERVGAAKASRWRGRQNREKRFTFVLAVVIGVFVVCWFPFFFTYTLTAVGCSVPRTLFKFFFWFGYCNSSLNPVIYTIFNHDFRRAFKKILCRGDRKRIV
# T2 sequence (P08913 whole entry): as above
smiles,measurement,setting,value
c1ccc(Nc2cncc3ccccc23)cc1,Emax,[1]; read-out: Gi Emax @ 0.1 mM,57%
same,Ki,[2],> 10 µM
Nc1ccc(Nc2cncc3ccccc23)cc1,Emax,[1]; read-out: Gi Emax ± SEM,< 5%
same,Ki,[2],4.6 ± 2.1 µM
c1ccc2c(Oc3ccncc3)cccc2c1,Emax,[1]; read-out: Gi Emax @ 0.1 mM,43%
same,Ki,[2],1.8 ± 0.73 µM
c1ccc2c(Nc3ccncc3)ncnc2c1,Emax,[1]; read-out: Gi Emax ± SEM,< 5%
same,Ki,[2],6.6 ± 1.8 µM
"Brc1c(NC2=NCCN2)ccc2nccnc12 [Brimonidine, brimonidine, reference compound]",Emax,[3],107 ± 7%
"Clc1cccc(Cl)c1N=C1NCCN1 [CLON, clonidine, reference compound]",Emax,[1]; read-out: Gαi Emax,115 ± 4%
same,Emax,[4]; read-out: β-arrestin-2 Emax,41 ± 3%
"Clc1ncc2ccccc2c1Nc1ccncc1 [Compound 1718, 3-chloro-N-(pyridin-4-yl)isoquinolin-4-amine]",functional classification (agonist / weak agonist),[5],agonist
same,EC50,"[5]; Table 6, read-out: EC50",0.008 µM
same,Emax,"[5]; Table 6, read-out: Emax (%)",45%
same,EC50,[1],0.014 µM
same,Emax,[1]; read-out: Gi Emax ± SEM,47%
same,Emax,[4]; read-out: β-Arr-2 Emax,< 5%
same,Ki,[2],0.022 ± 0.0067 µM
c1cc(Nc2ccncc2)c2sccc2c1 [Compound 4914],EC50,"[5]; Table 6, read-out: EC50",0.0068 µM
same,Emax,"[5]; Table 6, read-out: Emax (%)",76%
same,EC50,[1],0.0091 µM
same,Emax,[1]; read-out: Gi Emax ± SEM,77%
same,Emax,[4]; read-out: β-Arr-2 Emax,< 5%
same,Ki,[2],0.0072 ± 0.001 µM
"Cc1cccc([C@H](C)c2cnc[nH]2)c1C [DEX, dexmedetomidine, reference compound]",Emax,[1]; read-out: Gαi Emax,105 ± 4%
same,Emax,[3],76 ± 3%
same,Emax,[4]; read-out: β-arrestin-2 Emax,60 ± 3%
same,Motor impairment / sedation in rotarod test,[6],significant impairment and complete sedation at higher doses
COc1ccc2cccc(Nc3ccncc3)c2c1 [PS71],functional classification (agonist / weak agonist),[5],agonist
same,EC50,"[5]; Table 6, read-out: EC50",0.089 µM
same,Fold reduced Gi activity compared to ‘5879,[1],15 fold and 16 fold
same,EC50,[1],0.1 µM
same,Emax,[1]; read-out: Gi Emax ± SEM,85%
same,Emax,[4]; read-out: β-Arr-2 Emax,< 5%
same,Ki,[2],0.24 ± 0.12 µM
O=C1CCc2c(cccc2Nc2ccncc2)N1 [PS84],functional classification (agonist / weak agonist),[5],agonist
same,EC50,"[5]; Table 6, read-out: EC50",0.45 µM
same,EC50,[1],0.84 µM
same,Emax,[1]; read-out: Gi Emax ± SEM,37%
same,Ki,[2],0.5 ± 0.087 µM
O=C1NCCc2c(Nc3ccncc3)cccc21 [PS86],functional classification (agonist / weak agonist),[5],agonist
same,EC50,"[5]; Table 6, read-out: EC50",3.2 µM
same,EC50,[1],3.4 µM
same,Emax,[1]; read-out: Gi Emax ± SEM,91%
same,Ki,[2],1.2 ± 0.56 µM
NC1CCc2ccc(C3=CCCNC3)cc21 (centres unmarked) [TP92],Emax,[7],< 5%
same,G protein effect at 100 μM,[5]; at 100 μM,18% at 100 μM
"Nc1ccnc(Cc2ccc(F)cc2)c1 [TP94, 2-(4-Fluorobenzyl)pyridin-4-amine]",Emax,[7],< 10%
same,EC50,"[5]; Tables 7-9, read-out: G protein EC50",5 µM
same,Emax,[5]; [8],19%
"CC1=CCc2cc(C3=CCCNC3)ccc21 [TP97, 5-(3-Methyl-1H-inden-6-yl)-1,2,3,6-tetrahydropyridine]",Emax,[7],< 5%
same,Emax,[5]; [8],< 10%
"C=C(c1ccc(C(F)(F)F)cc1)c1cc(N)ccn1 [TP101, 2-(1-(4-(Trifluoromethyl)phenyl)vinyl)pyridin-4-amine]",Emax,[7],< 5%
same,Emax,[5]; [8],< 5%
"C=C1CCc2cc(C3=CCCNC3)ccc21 [TP105, 5-(1-Methylene-2,3-dihydro-1H-inden-5-yl)-1,2,3,6-tetrahydropyridine]",Emax,[7],< 5%
same,Emax,[5]; [8],< 5%
